Source: patent publication US20250082612A1, “SREBP-1 INHIBITOR AND PHARMACEUTICAL COMPOSITION FOR TREATING […]” (Jichi Medical University, priority 2021, published 2025)

Key:
H4IIEC3 cells = assay: Triglyceride concentration in culture solution of H4IIEC3 hepatocytes; type: cell-based, rat; details: 2 μM in culture medium; 24 hours; relative to DMSO group
Procedure: Specifically, first, H4IIEC3 cells (1×10^5 cells/well) seeded in advance in a 48-well plate, which are a cell line of rat hepatocytes, were cultured for 1 day. Next, culture medium exchange was carried out so that a high glucose DMEM (serum-free) containing each compound (concentration in culture medium: 2 μM) or DMSO as a control was 200 μL/well, and then the cells were incubated for 24 hours. Next, the triglyceride concentration in the culture solution was measured using a Triglyceride E-Test WAKO (FUJIFILM Corporation). In FIG. 7A to FIG. 7F, the triglyceride concentration in each compound addition group was indicated as a relative percentage in a case where the triglyceride concentration in the DMSO addition group was set to 100%.

human SREBP-1c = target: T1, human SREBP-1c (Homo sapiens, UniProt P36956); assay: Gal4-SREBP-1c luciferase reporter assay in HepG2 stable expression strain; type: cell-based; details: EPA 100 or 300 μM, OA 300 μM, Cho 100 μM, 25HCho 30 μM in culture medium; 24 hours; vs DMSO
T1 construct: expressed in transfected cells
T1 sequence (P36956 with tags, fused parts or gaps isoform P36956-4 limits assumed): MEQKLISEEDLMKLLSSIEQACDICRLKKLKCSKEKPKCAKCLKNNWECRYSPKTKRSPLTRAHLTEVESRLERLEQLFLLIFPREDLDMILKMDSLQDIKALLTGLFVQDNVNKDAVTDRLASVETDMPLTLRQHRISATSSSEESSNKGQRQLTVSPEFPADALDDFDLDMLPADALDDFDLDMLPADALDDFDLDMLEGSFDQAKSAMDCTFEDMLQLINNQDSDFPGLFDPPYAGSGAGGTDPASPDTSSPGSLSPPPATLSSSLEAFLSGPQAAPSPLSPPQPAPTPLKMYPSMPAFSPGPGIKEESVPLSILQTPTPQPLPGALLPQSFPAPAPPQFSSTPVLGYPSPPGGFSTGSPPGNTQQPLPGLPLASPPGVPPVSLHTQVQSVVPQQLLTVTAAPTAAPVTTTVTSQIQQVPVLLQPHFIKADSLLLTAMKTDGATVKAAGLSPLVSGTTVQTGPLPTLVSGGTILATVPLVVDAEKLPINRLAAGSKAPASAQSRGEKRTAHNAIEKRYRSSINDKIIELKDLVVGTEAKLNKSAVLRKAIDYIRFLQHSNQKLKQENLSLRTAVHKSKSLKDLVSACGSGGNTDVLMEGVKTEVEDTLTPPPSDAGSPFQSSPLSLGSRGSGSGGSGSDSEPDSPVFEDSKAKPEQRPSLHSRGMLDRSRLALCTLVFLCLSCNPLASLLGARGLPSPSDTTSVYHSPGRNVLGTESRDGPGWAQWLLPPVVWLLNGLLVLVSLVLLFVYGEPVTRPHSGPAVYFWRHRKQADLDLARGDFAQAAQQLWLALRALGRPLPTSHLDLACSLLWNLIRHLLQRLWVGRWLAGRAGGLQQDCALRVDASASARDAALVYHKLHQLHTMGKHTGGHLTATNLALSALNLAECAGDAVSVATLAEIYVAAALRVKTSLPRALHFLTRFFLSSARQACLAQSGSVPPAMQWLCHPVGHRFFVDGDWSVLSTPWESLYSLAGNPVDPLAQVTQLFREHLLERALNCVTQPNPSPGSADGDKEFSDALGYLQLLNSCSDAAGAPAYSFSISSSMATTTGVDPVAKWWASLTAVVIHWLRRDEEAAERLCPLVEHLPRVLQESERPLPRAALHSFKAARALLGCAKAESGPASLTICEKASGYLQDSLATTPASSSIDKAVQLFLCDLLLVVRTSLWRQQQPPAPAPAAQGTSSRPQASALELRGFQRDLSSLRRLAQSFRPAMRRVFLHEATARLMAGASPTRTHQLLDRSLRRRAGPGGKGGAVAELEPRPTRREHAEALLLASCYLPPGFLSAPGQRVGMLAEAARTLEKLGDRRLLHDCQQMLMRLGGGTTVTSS
Description: A pcDNA3.1 (+)-Hyg vector (manufactured by Thermo Fisher Scientific, Inc. under the brand of Invitrogen) was inserted with DNA fragments of a firefly luciferase reporter cloned from a pGL3-Basic vector (manufactured by Promega Corporation), a pSV40-Renilla luciferase reporter cloned from a pRL-SV40 vector (manufactured by Promega Corporation), and a human SREBP-1c cloned from a pTK-HSV-hSREBP-1c, whereby a vector having a structure shown in FIG. 1 was constructed. The base sequence of the vector is set forth in SEQ ID NO: 2. In FIG. 1, Gal4-BP1 is a human SREBP-1c that is obtained by fusing sequences of the Gal4-DNA binding domain and the minimal VP16-AD to the N-terminal side. 17 m8 is a DNA sequence to which the Gal4-DNA binding domain binds. CTCF is a DNA sequence that acts as an insulator, which blocks the action of transcription factors.
HepG2 cells, which are a cell line derived from human liver cancer, were cultured in advance to a confluency of 10% confluent in Dulbecco's Modified Eagle's Medium (DMEM) (containing 25 mM glucose, 100 units/mL penicillin, […] streptomycin sulfate, and 10 v/v % fetal bovine serum (FBS)) and then transfected with the vector obtained in (1) described above, by using a Lipofectamine 3000 transfection reagent (manufactured by Thermo Fisher Scientific, Inc. under the brand of Invitrogen), 5 whereby the vector was inserted into the genome. […] Next, a Reporter lysis buffer (Promega Corporation) was added to lyse the cells, and luciferase activity was measured with a luminometer.
Next, each candidate compound (concentration in culture medium: 2 or 5 μM) was added to the cell line (2×10^4 cells/well) seeded in a plurality of 384-well plates, which had been constructed in (2) described above, so that one kind of each compound was added to one well, and incubation was carried out for 24 hours. […] Next, Steady-Glo (a mixture of luciferin and a Lysis buffer) was added thereto, and then luciferase activity was measured with a luminometer. […]

human SREBP-2 = target: T2, human SREBP-2 (Homo sapiens, UniProt Q12772); assay: Gal4-SREBP-2 luciferase reporter assay in HepG2 stable expression strain; type: cell-based; details: EPA 100 or 300 μM, 25HCho 30 μM in culture medium; 24 hours; vs DMSO
T2 construct: expressed in transfected cells
T2 sequence (Q12772 with tags, fused parts or gaps limits assumed): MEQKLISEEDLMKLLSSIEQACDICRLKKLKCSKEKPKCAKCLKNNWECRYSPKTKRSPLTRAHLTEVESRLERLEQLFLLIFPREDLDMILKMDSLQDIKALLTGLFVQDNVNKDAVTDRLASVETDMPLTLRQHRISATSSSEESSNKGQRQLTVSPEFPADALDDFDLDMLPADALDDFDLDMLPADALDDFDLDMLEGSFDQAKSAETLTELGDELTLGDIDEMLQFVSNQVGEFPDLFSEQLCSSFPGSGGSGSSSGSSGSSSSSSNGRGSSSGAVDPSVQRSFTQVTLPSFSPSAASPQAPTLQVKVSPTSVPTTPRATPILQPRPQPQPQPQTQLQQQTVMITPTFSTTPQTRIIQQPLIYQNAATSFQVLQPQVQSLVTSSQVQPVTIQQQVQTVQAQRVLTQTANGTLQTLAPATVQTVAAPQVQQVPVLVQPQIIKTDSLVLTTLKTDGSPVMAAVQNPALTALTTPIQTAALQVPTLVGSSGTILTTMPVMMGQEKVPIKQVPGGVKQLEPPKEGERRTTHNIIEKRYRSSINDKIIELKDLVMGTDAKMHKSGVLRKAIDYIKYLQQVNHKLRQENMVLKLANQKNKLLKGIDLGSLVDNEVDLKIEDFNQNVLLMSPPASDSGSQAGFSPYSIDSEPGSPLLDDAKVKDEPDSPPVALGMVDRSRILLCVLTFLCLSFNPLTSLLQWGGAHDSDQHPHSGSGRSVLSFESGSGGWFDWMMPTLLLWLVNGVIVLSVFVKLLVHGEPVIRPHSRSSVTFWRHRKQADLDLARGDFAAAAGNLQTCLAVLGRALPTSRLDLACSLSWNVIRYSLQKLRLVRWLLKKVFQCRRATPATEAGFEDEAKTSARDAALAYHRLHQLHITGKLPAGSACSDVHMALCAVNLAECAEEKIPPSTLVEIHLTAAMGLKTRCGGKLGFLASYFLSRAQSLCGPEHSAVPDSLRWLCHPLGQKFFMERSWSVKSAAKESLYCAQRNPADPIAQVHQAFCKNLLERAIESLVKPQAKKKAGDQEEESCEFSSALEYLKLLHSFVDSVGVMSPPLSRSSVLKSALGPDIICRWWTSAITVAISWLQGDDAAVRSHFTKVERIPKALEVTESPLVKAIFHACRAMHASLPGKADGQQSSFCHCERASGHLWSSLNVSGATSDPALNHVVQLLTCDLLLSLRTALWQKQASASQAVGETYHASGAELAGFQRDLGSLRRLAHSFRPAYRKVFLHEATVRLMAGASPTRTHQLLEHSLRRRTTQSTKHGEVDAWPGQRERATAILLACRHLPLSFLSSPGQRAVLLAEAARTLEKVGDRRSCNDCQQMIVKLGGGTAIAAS
Description: In order to exclude compounds such as cholesterol and 25-hydroxycholesterol, which have an inhibitory action on both SREBP-1 and SREBP-2, first, a vector having the structure shown in FIG. 3 was constructed using the same method as in “1.” described above, except that a DNA fragment of human SREBP-2 cloned from pTK-HSVhSREBP-2 was used instead of the DNA fragment of human SREBP-1c. The base sequence of the vector is set forth in SEQ ID NO: 3. In FIG. 3, Gal4-BP2 is a human SREBP-2 that is obtained by fusing sequences of the Gal4-DNA binding domain and the minimal VP16-AD to the N-terminal side.
a stable expression strain of HepG2, which stably expressed firefly luciferase, was established using the same method as in “1. (2)” described above, except that the vector obtained in “2. (1)” described above was used. […] Next, a Reporter lysis buffer (Promega Corporation) was added to lyse the cells, and luciferase activity was measured with a luminometer. […]
Among the 39 kinds of compounds, 23 kinds of compounds were selected by searching the PAINS database (https://www.rdkit.org/docs/source/rdkit. Chem.rdfiltercatalog.html) and excluding, from targets of interest, compounds for which non-specific action had been reported. […] It is noted that the SREBP-1 inhibition rate and the SREBP-2 inhibition rate in the reporter assay were calculated using the following method. […]

SMILES	triglycerides in culture solution of cultured hepatocytes (FIG. 7A-7F) (H4IIEC3 cells)	luciferase activity (SREBP-1 reporter, FIG. 2) (human SREBP-1c)	luciferase activity (SREBP-2 reporter, FIG. 4) (human SREBP-2)
CCCOc1ccccc1OC(=O)CN1C(=O)COc2ccccc21 [(5)]	reduce triglycerides	–	–
COc1ccc2c(c1)[nH]c1c(C)nccc12 [(16)]	reduce triglycerides	–	–
CC(C)CCC[C@@H](C)[C@H]1CC[C@H]2[C@@H]3CC=C4C[C@@H](O)CC[C@]4(C)[C@H]3CC[C@]12C [Cho, cholesterol]	–	luciferase activity was reduced	–
C[C@H](CCCC(C)(C)O)[C@H]1CC[C@H]2[C@@H]3CC=C4C[C@@H](O)CC[C@]4(C)[C@H]3CC[C@]12C [Compound 25HCho, 25-hydroxycholesterol]	–	luciferase activity was reduced	luciferase activity was reduced
CCCCCCCC/C=C\CCCCCCCC(=O)O [OA, oleic acid]	–	luciferase luminescence was observed	–

Continued, in another order:

triglycerides in culture solution of cultured hepatocytes (FIG. 7A-7F) (H4IIEC3 cells)	SMILES	luciferase activity (SREBP-1 reporter, FIG. 2) (human SREBP-1c)	luciferase activity (SREBP-2 reporter, FIG. 4) (human SREBP-2)
reduce triglycerides	CSc1nn(-c2ccc([N+](=O)[O-])cc2)c(N)c1C(N)=O [(6), 5-amino-3-methylsulfanyl-1-(4-nitrophenyl)pyrazole-4-carboxamide]	–	–
reduce triglycerides	C=CCNc1nc(-c2ccc(N3CCCC3=O)cc2)cs1 [(11)]	–	–
reduce triglycerides	CCc1c2c(nc3ccc(O)cc13)-c1cc3c(c(=O)n1C2)COC(=O)[C@]3(O)CC [(22a)]	–	–
